Columns and labels:
[1] = intramuscular or intravenous injection; cited from earlier work
heavy smokers = test: Treatment of heavy smokers using anticholinergic therapy; format: in vivo, human; conditions: heavy smokers unable to visit for a booster
Excerpt: Some individuals were characterized as heavy smokers and smoked 20 or more cigarettes per day. […] All of these patients received normal supportive treatment by sedative drugs and counseling on coping with and adjusting to addiction.
Booster injections were offered to all patients.

monkeys = conditions: cited from earlier work
[2] = test system: superior cervical ganglia; conditions: cited from earlier work

## CN1[C@@H]2CC[C@H]1C[C@@H](OC(c1ccccc1)c1ccccc1)C2 [benztropine, 8-azabicyclo [3.2.1]octane, 3-(diphenylmethoxy)-, endo, methanesulfonate]
[1]
  onset of action: within minutes
Heavy smokers; a few weeks after treatment
  patient-reported well-being: feeling well
Heavy smokers; given during the 5 days after the first injection
  relapse to smoke again: no immediate or short term relapse

## C[C@H](N)Cc1ccccc1 [d-amphetamine]
monkeys
  effect on smoking (puffing pattern): decreased smoking

## CN1CCCC1c1cccnc1 (stereo not shown) [nicotine]
[2]; after withdrawal of nicotine
  acetylcholinesterase: about 117 % of controls
[2]; chronic nicotine treatment
  acetylcholine increase: about 35%

## CN1[C@@H]2C[C@@H](OC(=O)[C@H](CO)c3ccccc3)C[C@H]1[C@@H]1O[C@@H]12 [scopolamine]
monkeys
  effect on smoking (puffing pattern): decreased smoking

From patent US20070287727A1, “Anti-Nicotine Treatment” (priority 2006, published 2007)
